This is an account of results in patent US10718782B2, “Method of evaluating cellulite and method of evaluating cellulite-effective drug using fibulin-3 and/or sarcoglycan gamma as an indicator” (Shiseido Company, Ltd., priority 2012, dated 2020).

Assay [1] concerns cellulite. The conditions noted are these: applied on the affected cellulite site; Patent Literature 1 and 2, Non-patent Literature 8; cited from earlier work.
The test system of assay [2] is sarcoglycan gamma. In words: Addition of known cellulite-improving drugs to cultured fibroblasts, sarcoglycan gamma expression by quantitative PCR. The format is cell-based. As to conditions: fibroblasts derived from human skin tissue, serum-free medium, 24 hours; conjugated linoleic acid 0.001% and 0.01% v/v, nicotinamide 0.0005% and 0.005% v/v; mRNA vs control. As to the method: (§1) Quantitative RT-PCR was carried out by using synthesized cDNA as the template, and further by using a reaction reagent LightCycler (registered trademark) FastStart DNA MasterPlus SYBR Green (Roche), and a reaction instrument LightCycler (Roche) or AB 7900 HT Fast Real-Time PCR System (Applied Biosystems). The condition for composition was as described in Roche's protocol. The annealing temperature of the primers was set at 60° C., and quantitated by using ΔΔCt method.
(§2) Fibroblasts derived from human skin tissue were plated in a 24-well type I collagen-coated dish (IWAKI), and cultured to 70-80% confluence in a 10% bovine fetal serum-supplemented DMEM (Gibco/Invitrogen) under the condition of 37° C. and 5% CO2. After replacing with a serum-free medium for half a day, it was further replaced with a serum-free medium with varying concentrations of conjugated linoleic acid (Sigma) (0.001% v/v, 0.01% v/v) or nicotinamide (Sigma) (0.0005% v/v, 0.005% v/v). 24 hours later, RNA was recovered by using RNeasy mini kit (Qiagen) according to Qiagen's protocol. As a control, RNA prepared and recovered by substituting the medium with an intact serum-free medium, and recovering RNA 24 hours later was used. The concentration of the recovered RNA was determined using a nucleic acid quantitation instrument Nanodrop (Thermo Scientific). […]

Assay [3] relates to fibulin-3. Put plainly: Addition of known cellulite-improving drugs to cultured fibroblasts, fibulin-3 expression by quantitative PCR. The format is cell-based. The conditions noted are these: fibroblasts derived from human skin tissue, serum-free medium, 24 hours; conjugated linoleic acid 0.001% and 0.01% v/v, nicotinamide 0.0005% and 0.005% v/v; mRNA vs control. The procedure: as §1, §2

Consider sulfocarbiose, for which the alleviation of cellulite result in assay [1] is “alleviate cellulite”.

Turning to `NC(=O)c1cccnc1` [nicotinamide], the “expression of sarcoglycan gamma” value in assay [2] is “enhanced the expression of fibulin-3 and sarcoglycan in a dose-dependent manner”. Also, the “expression of fibulin-3” value in assay [3] is “enhanced the expression of fibulin-3 and sarcoglycan in a dose-dependent manner”. Moreover, in assay [1], the alleviation of cellulite result is on record as “alleviate cellulite”.

For the compound conjugated linoleic acid, the “expression of sarcoglycan gamma” value in assay [2] was “enhanced the expression of fibulin-3 and sarcoglycan in a dose-dependent manner”. In addition, the “expression of fibulin-3” value in assay [3] is “enhanced the expression of fibulin-3 and sarcoglycan in a dose-dependent manner”. In assay [1], the alleviation of cellulite entry is listed as “alleviate cellulite”.
